From patent US20230286973A1, “PROTEIN SECRETION INHIBITORS” (KEZAR LIFE SCIENCES, priority 2020, published 2023)

Legend:
[1] = system: PD1-ss+10aa/Gaussia Luciferase; experiment: Dox-Induced PD1-ss-Gluc Assay; type: cell-based; conditions: 24 hr Dox induction; 293FRT/TO cells; mean; read-out: 24 hr Dox Inducible PD1ssGluc 293FRT/TO: Mean IC50
Summary of the method: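 Flp-In 293 T-REx cells stably carrying a doxycycline-inducible Gaussia luciferase fused to the PD1 signal sequence plus 10 aa were plated the day before. Compound dilutions in DMSO/media containing doxycycline were then added and incubated at 37 °C, 5% CO2. Data for undefined stereochemistry refer to stereoisomer mixtures.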

[2] = system: TNFα-FL/Gaussia Luciferase; experiment: Dox Induced TNFα-FL-Gluc Assay; type: cell-based; conditions: for IC50: 24 hr Dox induction, 293FRT/TO cells, mean, read-out: 24 hr Dox Inducible TNFaFLGluc 293FRT/TO: Mean IC50; for 24 hr Dox Inducible TNFaFLGluc 293FRT/TO: TNF/PD1: ratio of TNFaFLGluc IC50 to PD1ssGluc IC50, '<=>' given where both are I.A.
Summary of the method: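 Flp-In 293 T-REx cells stably expressing full-length TNFα (aa 1-233) fused at its C-terminus to Gaussia luciferase under tetracycline-regulated control were plated the day before assay. Compound dilutions in DMSO/media containing doxycycline were added and incubated at 37 °C, 5% CO2. Unspecified stereochemistry denotes stereoisomer mixtures.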

[3] = system: HER3-ss+4aa/Gaussia Luciferase; experiment: Dox-Induced Her3-ss-Gluc Assay; type: cell-based; conditions: 24 hr Dox induction; 293FRT/TO cells; mean; read-out: 24 hr Dox Inducible Her3(ss + 4)Gluc 293FRT/TO: Mean IC50
Summary of the method: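 Stable Flp-In 293 T-REx line expressing Gaussia luciferase fused to the HER3 signal sequence plus 4 amino acids under tetracycline-regulated (T-REx) control. Cells plated the day before, then treated with compound dilutions in DMSO/media containing doxycycline and incubated at 37° C., 5% CO2.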

[4] = system: IL-2-FL/Gaussia Luciferase; experiment: Dox Induced IL2-FL-Gluc Assay; type: cell-based; conditions: for IC50: 24 hr Dox induction, 293FRT/TO cells, mean, read-out: 24 hr Dox Inducible IL2FLGluc 293FRT/TO: Mean IC50; for 24 hr Dox Inducible IL2FLGluc 293FRT/TO: IL2/PD1: ratio of IL2FLGluc IC50 to PD1ssGluc IC50, '<=>' given where both are I.A.
Summary of the method: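 Flp-In 293 T-REx cells stably carrying doxycycline-inducible full-length IL-2 (aa 1-153) fused at its C-terminus to Gaussia luciferase, selected with hygromycin and blasticidin. Cells were plated the day before, then treated with compounds in DMSO/media containing doxycycline at 37° C, 5% CO2.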

[5] = system: multiple myeloma cell line NCI-H929; experiment: H929 Cell Viability Assay; type: cell-based, human; conditions: Homo sapiens, NCI-H929, 48 h, NCI-H929 cells, Celltiter-Glo
Summary of the method: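 NCI-H929 cells, resuspended in RPMI 1640 with 10% FBS and 2 mM glutamine, were treated with compound dilutions in DMSO/media and incubated 48 hours at 37° C, 5% CO2. Viability was read by CellTiter-Glo luminescence. Compounds drawn without stereochemistry were tested as stereoisomer mixtures.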

[6] = system: multiple myeloma cell line U266B1; experiment: U266 Cell Viability Assay; type: cell-based, human; conditions: Homo sapiens, U-266, 48 h, U266B1 cells, Celltiter-Glo
Summary of the method: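 Cells grown in RPMI 1640 with 10% FBS, 2 mM glutamine and penicillin/streptomycin were exposed to compound dilutions in DMSO/media for 48 hours at 37° C., 5% CO2. Viability was read by CellTiter-Glo luminescence. Undefined stereocentres mean data for stereoisomer mixtures.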

[7] = Liver Microsome Stability Assay (rat); conditions: rat liver microsomes, with NADPH, 1.0 uM compound
Procedure: (§1) Stability of a compound was assessed in the presence of liver microsomes from various sources—mouse, rat, monkey and human liver microsomes. 1.0 uM compound, 0.4% DMSO in 0.1 M Potassium Phosphate with 1.0 mg/mL liver microsomes, were incubated at 37° C. with or without 1 mM NADPH. The samples were quenched at 0, and 30 minutes.

[8] = Liver Microsome Stability Assay (mouse); conditions: mouse liver microsomes, with NADPH, 1.0 uM compound
Procedure: as §1

[9] = Liver Microsome Stability Assay (human); conditions: human liver microsomes, with NADPH, 1.0 uM compound
Procedure: as §1

[10] = Liver Microsome Stability Assay (monkey); conditions: monkey liver microsomes, with NADPH, 1.0 uM compound
Procedure: as §1

Compound	IC50 [1] [µM]	IC50 [2] [µM]	24 hr Dox Inducible TNFaFLGluc 293FRT/TO: TNF/PD1 [2]	IC50 [3] [µM]	IC50 [4] [µM]	24 hr Dox Inducible IL2FLGluc 293FRT/TO: IL2/PD1 [4]	EC50 [5] [µM]	EC50 [6] [µM]	Liver Microsome Stability (Multiple Species): Rat - % Remaining after 30 min w/NADPH [7] [%]	Liver Microsome Stability (Multiple Species): Mouse - % Remaining after 30 min w/NADPH [8] [%]	Liver Microsome Stability (Multiple Species): Human - % Remaining after 30 min w/NADPH [9] [%]	Liver Microsome Stability (Multiple Species): Monkey - % Remaining after 30 min w/NADPH [10] [%]
O=C(Nc1nc([C@H]2CCCN2c2ccccc2)cs1)c1cccn1CC1CCC(F)(F)C1 (stereo partly drawn) [Compound C123, 1-((3,3-difluorocyclopentyl)methyl)-N-(4-((R)-1-phenylpyrrolidin-2-yl)thiazol-2-yl)-1H-pyrrole-2-carboxamide]	0.377	8.55	22.7	0.62	0.776	2.1	> 25	> 25	6.16	23.6	58.5	3.11
O=C(Nc1nc(/C=C/c2ncc(F)cc2F)cs1)c1cccn1CC1CCOCC1 [Compound D2, (E)-N-(4-(2-(3,5-difluoropyridin-2-yl)vinyl)thiazol-2-yl)-1-((tetrahydro-2H-pyran-4-yl)methyl)-1H-pyrrole-2-carboxamide]	0.397	6.09	15.3	1.5	> 13.5	>34	> 23.9	> 25	0.39	2.76	5.79	0.23
Cc1ccc(/C=C/c2csc(NC(=O)c3cccn3CC3CCOCC3)n2)nc1F [Compound D3, (E)-N-(4-(2-(6-fluoro-5-methylpyridin-2-yl)vinyl)thiazol-2-yl)-1-((tetrahydro-2H-pyran-4-yl)methyl)-1H-pyrrole-2-carboxamide]	0.734	> 25	>34.1	2	6.66	9.1	10.2	> 17.8	0.26	0.46	0.24	0.09
O=C(Nc1nc(/C=C/c2ncoc2C2CCCCC2)cs1)c1cccn1CC1CCOCC1 [Compound D4, (E)-N-(4-(2-(5-cyclohexyloxazol-4-yl)vinyl)thiazol-2-yl)-1-((tetrahydro-2H-pyran-4-yl)methyl)-1H-pyrrole-2-carboxamide]	1.04	> 25	>24.1	10.6	> 25	>24	> 25	> 25	1.86	29.8	5.39	1.35
O=C(Nc1nc(/C=C/c2cn(C3CCCCC3)cn2)cs1)c1cccn1CC1CCOCC1 [Compound D5, (E)-N-(4-(2-(1-cyclohexyl-1H-imidazol-4-yl)vinyl)thiazol-2-yl)-1-((tetrahydro-2H-pyran-4-yl)methyl)-1H-pyrrole-2-carboxamide]	0.776	> 25	>32.2	21.4	13.5	17	18.9	> 24.7	0.16	0.54	0.18	0.17
CC(C)c1ccc(/C=C/c2csc(NC(=O)c3cccn3CC3CCOCC3)n2)nc1 [Compound D6, (E)-N-(4-(2-(5-isopropylpyridin-2-yl)vinyl)thiazol-2-yl)-1-((tetrahydro-2H-pyran-4-yl)methyl)-1H-pyrrole-2-carboxamide]	0.595	> 25	>42.0	6.2	> 25	>42	8.68	12.3	0.06	0.09	0.03	0.04
CC(C)n1cnc(/C=C/c2csc(NC(=O)c3cccn3CC3CCOCC3)n2)c1 [Compound D7, (E)-N-(4-(2-(1-isopropyl-1H-imidazol-4-yl)vinyl)thiazol-2-yl)-1-((tetrahydro-2H-pyran-4-yl)methyl)-1H-pyrrole-2-carboxamide]	2.83	> 25	>8.84	> 25	> 25	>8.8	> 25	> 25	2.55	0.56	0.04	0.07
Cc1ccnc(/C=C/c2csc(NC(=O)c3cccn3Cc3ccncc3)n2)c1 [Compound E1, (E)-N-(4-(2-(4-methylpyridin-2-yl)vinyl)thiazol-2-yl)-1-(pyridin-4-ylmethyl)-1H-pyrrole-2-carboxamide]	0.154	> 25	>163	4.13	22.1	140	23.9	> 25	0.33	0.33	0.57	0.53
